These results are taken from patent publication US12618096B2, “Rapid screen for antibiotic resistance and treatment regimen” (priority 2020, dated 2026).

Assay type in all cases: cell-based
Test [1] concerns A. baumannii NCTC 13302. Kind of test: Resistance profile of bacterial strain.
For test [2], the system named is A. baumannii NCTC 10303. In words: Resistance profile of bacterial strain.
Test [3] concerns A. baumannii ATCC 17978 ColR. Kind of test: Resistance profile of bacterial strain.
Test [4] relates to P. aeruginosa PAO1. In words: Resistance profile of bacterial strain.
For test [5], the system named is A. baumannii ATCC 17978. Kind of test: Resistance profile of bacterial strain.
Test [6] concerns Klebsiella pneumoniae (NCTC 13368). In words: Bacterial impedance flow cytometry of antimicrobial peptides. To be noted: at the concentrations tested. How it is done: The method for determining the efficacy of different membrane penetrating peptide antimicrobials is essentially the same as for Example 1. Briefly, colonies are picked from plate carrying bacteria from a clinical sample (e.g. a urine sample from suspected UTI) into Tryptone soy broth (TSB) and incubated for 30 minutes prior to addition of the membrane penetrating peptide antimicrobial preparation. The incubation is typically carried out at 37° C. with shaking. […] The concentrations are selected to span the minimum inhibitory concentration of the two strains, as might be used clinically for an antimicrobial breakpoint determination. Optionally, the bacterial impedance flow cytometry method may be used to generate a measurement of the minimum inhibitory concentration or a fixed concentration is used on the basis of a resistant/susceptible breakpoint. The sample is incubated at 37° C. for 30 or 60 minutes in a static incubator at 37° C. The population at each timepoint is analysed using bacterial impedance flow cytometry and the data collected and analysed to measure both the viable cell number and any migration of the cell population out of a contour enclosing a percentage of a control or untreated population of the same species.
The bacterial impedance of the population was measured. […]

As to `O=C(O)c1cn(C2CC2)c2cc(N3CCNCC3)c(F)cc2c1=O` [Ciprofloxacin], the Resistance profile entry in test [1] is “Resistant”; in test [2] it was “Resistant”; in test [3], “Colistin-Resistant Ciprofloxacin-Resistant;”; in test [4] it was “Resistant”; in test [5], “Resistant”.

Turning to `CC[C@H](C)[C@H](NC(=O)CN)C(=O)NCC(=O)N[C@@H](C)C(=O)N[C@H](C(=O)N[C@@H](CC(C)C)C(=O)N[C@@H](CCCCN)C(=O)N[C@H](C(=O)N[C@@H](CC(C)C)C(=O)N[C@H](C(=O)N[C@H](C(=O)NCC(=O)N[C@@H](CC(C)C)C(=O)N1CCC[C@H]1C(=O)N[C@@H](C)C(=O)N[C@@H](CC(C)C)C(=O)N[C@H](C(=O)N[C@@H](CO)C(=O)N[C@@H](Cc1c[nH]c2ccccc12)C(=O)N[C@H](C(=O)N[C@@H](CCCCN)C(=O)N[C@@H](CCCNC(=N)N)C(=O)N[C@@H](CCCCN)C(=O)N[C@@H](CCCNC(=N)N)C(=O)N[C@@H](CCC(N)=O)C(=O)N[C@@H](CCC(N)=O)C(N)=O)[C@@H](C)CC)[C@@H](C)CC)[C@@H](C)O)[C@@H](C)O)C(C)C)C(C)C` [melittin], the “Susceptibility of NCTC 13368 relative to NCTC 12923” value in test [6] was “lower susceptibility”.

As for Colistin, the Resistance profile result in test [1] is recorded as “Sensitive”; in test [2], “Sensitive”; in test [3] it was “Colistin-Resistant Ciprofloxacin-Resistant;”; in test [4], “Sensitive”; in test [5] it was “Sensitive”.

With Gentamicin, the Resistance profile entry is listed as “Gentamicin- Resistant; Imipenem -Resistant;” in test [1]; “resistant” in test [2]; “Resistant” in test [3]; “Resistant” in test [4]; “Resistant” in test [5].

With Piperacillin/tazobactam, the Resistance profile result is on record as “Piperacillin/tazobactam -Resistant” in test [1]; “Piperacillin/tazobactam -sensitive” in test [2]; “Piperacillin/tazobactam -Sensitive” in test [3]; “Piperacillin/tazobactam -Sensitive” in test [4]; “Piperacillin/tazobactam -Sensitive” in test [5].
